Assays:
SIK2 [1] = biological target: T1, SIK2 (Homo sapiens, UniProt Q9H0K1); experiment: SIK2 Enzymatic Assay High Version 2 (High ATP); assay type: biochemical
Summary of the method: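 At room temperature, enzyme (6 nM, 2× final) was preincubated with compound for 30 min, then 6 mM ATP and 400 μM HDAC5tide (both 2× final) were added for 2 h. ADP formed was measured by ADP-Glo Max (2 h reagent, 1 h detection) using luminescence.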

SIK2 [2] = biological target: T1, SIK2; experiment: SIK2 Enzymatic Assay Version 1 (ADP Glo); assay type: biochemical; settings: enzyme 0.6 nM, 160 μM ATP and 140 μM HDAC5tide (each 2× final concentration); 30 minutes pre-incubation, 4 hours; ADPGlo luminescence; read-out: SIK2 ADP Glo IC50 (μM) (Test Example 1)
Summary of the method: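 Room-temperature ADP-Glo luminescence assay; SIK2 added at 0.6 nM (2× final) and preincubated with compound for 30 min. Reaction stopped with ADP-Glo Reagent for 40 min, then detection reagent for at least 30 min; no-peptide (ATP-only) wells served as negative control.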

T1 sequence (Q9H0K1 whole entry, species assumed): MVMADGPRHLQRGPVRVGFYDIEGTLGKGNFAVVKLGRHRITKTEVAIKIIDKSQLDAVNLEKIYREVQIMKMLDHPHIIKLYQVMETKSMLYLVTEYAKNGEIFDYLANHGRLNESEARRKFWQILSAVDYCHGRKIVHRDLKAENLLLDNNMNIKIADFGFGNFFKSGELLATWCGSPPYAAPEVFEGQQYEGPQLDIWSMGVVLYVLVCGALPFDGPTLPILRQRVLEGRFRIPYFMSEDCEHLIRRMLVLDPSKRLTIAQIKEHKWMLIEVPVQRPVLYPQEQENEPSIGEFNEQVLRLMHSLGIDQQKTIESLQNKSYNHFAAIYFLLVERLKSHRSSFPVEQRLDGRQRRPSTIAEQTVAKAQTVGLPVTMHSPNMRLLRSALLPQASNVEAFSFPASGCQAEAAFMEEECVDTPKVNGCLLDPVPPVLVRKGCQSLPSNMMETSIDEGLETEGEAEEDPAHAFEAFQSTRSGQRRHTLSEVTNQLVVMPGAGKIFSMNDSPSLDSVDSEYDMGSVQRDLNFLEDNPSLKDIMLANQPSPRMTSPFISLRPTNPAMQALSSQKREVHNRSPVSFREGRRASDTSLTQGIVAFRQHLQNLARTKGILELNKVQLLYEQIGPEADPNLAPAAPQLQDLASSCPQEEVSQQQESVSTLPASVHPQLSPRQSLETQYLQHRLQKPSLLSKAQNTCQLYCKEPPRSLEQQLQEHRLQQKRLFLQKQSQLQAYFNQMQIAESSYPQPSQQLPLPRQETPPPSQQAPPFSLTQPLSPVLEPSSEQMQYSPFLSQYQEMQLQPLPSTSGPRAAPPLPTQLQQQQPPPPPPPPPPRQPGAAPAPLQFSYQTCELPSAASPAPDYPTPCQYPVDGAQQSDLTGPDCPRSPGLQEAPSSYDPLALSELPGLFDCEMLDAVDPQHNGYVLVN

SMILES	IC50 (SIK2 [1]) [nM]	IC50 (SIK2 [2]) [µM]
Cc1cc(-c2ccn3nc(NC(=O)C4CC4)cc3c2)c(O[C@@H]2CC[C@H](N)C2)cn1 [Example 152, N-[5-[5-[(1R,3S)-3-aminocyclopentoxy]-2-methyl-4-pyridyl]pyrazolo[1,5-a]pyridin-2-yl]cyclopropanecarboxamide]	70.1	0.00378
Cc1cc(-c2ccn3nc(NC(=O)C4CC4)cc3c2)c(O[C@@H]2CC[C@@H](N)C2)cn1 [Example 153, N-[5-[5-[(1R,3R)-3-aminocyclopentoxy]-2-methyl-4-pyridyl]pyrazolo[1,5-a]pyridin-2-yl]cyclopropanecarboxamide]	13.7	0.000688
Cc1cc(-c2ccn3nc(NC(=O)C4CC4)cc3c2)c(OCC2(N)CCC2)cn1 [Example 154, N-[5-[5-[(1-aminocyclobutyl)methoxy]-2-methyl-4-pyridyl]pyrazolo[1,5-a]pyridin-2-yl]cyclopropanecarboxamide]	24	0.00116
Cc1cc(-c2ccn3nc(NC(=O)C4CC4)cc3c2)c(OCC2(N)CCCC2)cn1 [Example 155, N-[5-[5-[(1-aminocyclopentyl)methoxy]-2-methyl-4-pyridyl]pyrazolo[1,5-a]pyridin-2-yl]cyclopropanecarboxamide]	15.6	0.00108
CNC1(COc2cnc(C)cc2-c2ccn3nc(NC(=O)C4CC4)cc3c2)CCC1 [Example 156, N-[5-[2-methyl-5-[[1-(methylamino)cyclobutyl]methoxy]-4-pyridyl]pyrazolo[1,5-a]pyridin-2-yl]cyclopropanecarboxamide]	78.8	0.00369
Cc1cc(-c2ccn3nc(NC(=O)C4CC4)cc3c2)c(O[C@H]2C[C@H](N)C2)cn1 [Example 170, trans-N-[5-[5-(3-aminocyclobutoxy)-2-methyl-4-pyridyl]pyrazolo[1,5-a]pyridin-2-yl]cyclopropanecarboxamide]	12.9	0.000853

Continued, values first:

IC50 (SIK2 [1]) [nM]	IC50 (SIK2 [2]) [µM]	SMILES
18.3	0.00132	Cc1cc(-c2ccn3nc(NC(=O)C4CC4)cc3c2)c(O[C@H]2CC[C@H](O)CC2)cn1 [Example 158, trans-N-[5-[5-(4-hydroxycyclohexoxy)-2-methyl-4-pyridyl]pyrazolo[1,5-a]pyridin-2-yl]cyclopropanecarboxamide]
15.9	0.00101	Cc1cc(-c2ccn3nc(NC(=O)C4CC4)cc3c2)c(OC[C@H]2CNCCO2)cn1 [Example 166, N-[5-[2-methyl-5-[[(2R)-morpholin-2-yl]methoxy]-4-pyridyl]pyrazolo[1,5-a]pyridin-2-yl]cyclopropanecarboxamide]
8.8	0.00059	Cc1cc(-c2ccn3nc(NC(=O)C4CC4)cc3c2)c(OC[C@@H]2CNC(C)(C)CO2)cn1 [Example 167, N-[5-[5-[[(2S)-5,5-dimethylmorpholin-2-yl]methoxy]-2-methyl-4-pyridyl]pyrazolo[1,5-a]pyridin-2-yl]cyclopropanecarboxamide]
4.73	0.000382	Cc1cc(-c2ccn3nc(NC(=O)C4CC4)cc3c2)c(OC[C@@H]2CN[C@H](C)CO2)cn1 [Example 168, N-[5-[2-methyl-5-[[(2S,5R)-5-methylmorpholin-2-yl]methoxy]-4-pyridyl]pyrazolo[1,5-a]pyridin-2-yl]cyclopropanecarboxamide]
50.7	0.00307	Cc1cc(-c2ccn3nc(NC(=O)C4CC4)cc3c2)c(OCC2(F)CN(C)C2)cn1 [Example 169, N-[5-[5-[(3-fluoro-1-methyl-azetidin-3-yl)methoxy]-2-methyl-4-pyridyl]pyrazolo[1,5-a]pyridin-2-yl]cyclopropanecarboxamide]
12.3	0.000617	Cc1cc(-c2ccn3nc(NC(=O)C4CC4)cc3c2)c(OC[C@H]2C[C@@H](N)C2)cn1 [Example 171, cis-N-[5-[5-[(3-aminocyclobutyl)methoxy]-2-methyl-4-pyridyl]pyrazolo[1,5-a]pyridin-2-yl]cyclopropanecarboxamide]

Source: patent US20240158392A1 (Janssen Biotech, Inc., priority 2021, published 2024)
